Where two headings read alike, the source gives them in different places.
Experiments:
Assay in all cases: stopped-flow CO2 hydration
Format in all cases: biochemical
NgCAα = biological target: T1, NgCAα (Neisseria gonorrhoeae, UniProt Q50940)
T1 construct: gene cah; recombinant, obtained in-house as described earlier
T1 sequence (Q50940 27-252): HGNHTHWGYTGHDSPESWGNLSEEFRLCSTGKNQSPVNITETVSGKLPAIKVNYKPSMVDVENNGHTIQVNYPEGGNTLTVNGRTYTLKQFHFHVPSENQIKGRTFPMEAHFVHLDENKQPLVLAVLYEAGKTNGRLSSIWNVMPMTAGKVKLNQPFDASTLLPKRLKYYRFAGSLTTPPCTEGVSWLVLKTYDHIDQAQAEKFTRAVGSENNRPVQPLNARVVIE

VchCAα = biological target: T2, VchCAα (Vibrio cholerae, UniProt Q9KMP6); settings: read-out: Ki (μM)^a / VchCAα; […] h preincubation at […] °C; […] HEPES pH […] NaClO4; prodrug, lactone hydrolysed by CA esterase activity
T2 construct: gene VC_A0274

hCA II = biological target: T3, hCA II (Homo sapiens, UniProt P00918)
T3 construct: gene CA2; recombinant, obtained in-house as described earlier

hCA I = biological target: T4, hCA I (Homo sapiens, UniProt P00915)
T4 construct: gene CA1; recombinant, obtained in-house as described earlier
T4 sequence (P00915 2-261): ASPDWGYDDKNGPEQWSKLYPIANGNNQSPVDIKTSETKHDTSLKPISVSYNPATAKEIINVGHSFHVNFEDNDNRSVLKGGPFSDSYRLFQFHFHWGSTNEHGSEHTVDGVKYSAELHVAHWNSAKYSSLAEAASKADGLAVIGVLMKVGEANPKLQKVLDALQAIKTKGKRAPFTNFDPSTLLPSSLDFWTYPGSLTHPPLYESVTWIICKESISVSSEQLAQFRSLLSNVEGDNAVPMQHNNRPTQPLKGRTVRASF

T2 sequence (Q9KMP6 21-239 limits assumed): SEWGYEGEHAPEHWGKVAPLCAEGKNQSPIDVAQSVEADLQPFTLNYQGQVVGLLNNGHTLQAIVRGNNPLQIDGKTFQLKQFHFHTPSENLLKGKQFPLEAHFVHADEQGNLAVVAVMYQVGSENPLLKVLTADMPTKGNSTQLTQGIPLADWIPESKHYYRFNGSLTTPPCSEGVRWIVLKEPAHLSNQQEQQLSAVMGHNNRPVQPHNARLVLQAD

Row | SMILES | Ki (NgCAα; read-out: Ki (μM)^a / NgCAα) [µM] | Ki (VchCAα) [µM] | Ki (hCA II; read-out: Ki (μM)^a / hCA II) [µM] | Ki (hCA I; read-out: Ki (μM)^a / hCA I) [µM] | Ki (NgCAα) [µM] | Ki (hCA II) [µM] | Ki (hCA I) [µM]
1 | O=c1ccc2ccccc2o1 [compound 1, simple unsubstituted coumarin 1] | 81.6 | 94.7 | – | – | – | – | –
2 | O=c1ccc2cc(O)ccc2o1 [compound 2, 2] | 92.4 | 77.5 | 683 | 192 | – | – | –
3 | O=c1ccc2ccc(O)cc2o1 [compound 3, 3] | 77.1 | 68.5 | – | – | – | – | –
4 | O=c1cc(O)c2ccccc2o1 [compound 4, 4] | – | 92.2 | – | – | 94.7 | 513 | 394
5 | O=c1oc2ccccc2cc1O [compound 5, 5] | 110 | 290 | 625 | 490 | – | – | –
6 | Nc1ccc2c(C(F)(F)F)cc(=O)oc2c1 [compound 7, 7] | 97.1 | 95 | 733 | 940 | – | – | –
7 | CCN(CC)c1ccc2c(C)cc(=O)oc2c1 [compound 8, 4-methyl-7-diethylamino-coumarin] | 28.6 | 53.9 | 559 | 517 | – | – | –
8 | CC(=O)c1c(O)ccc2ccc(=O)oc12 [compound 9, 7-hydroxy-8-acetyl-coumarin] | 42.5 | 39.8 | 646 | 949 | – | – | –
9 | Cc1cc2ccc(O)cc2oc1=O [compound 10, 10] | 68 | 66.8 | 297 | 137 | – | – | –
10 | CCOC(=O)Cc1cc(=O)oc2cc(O)ccc12 [compound 11, 11] | 469 | 439 | 876 | 749 | – | – | –
11 | O=c1cc(O)c2ccc(O)cc2o1 [compound 12, 12] | 77.6 | 66 | 758 | 182 | – | – | –
12 | CCOC(=O)c1cc2ccc(O)cc2oc1=O [compound 13, 13] | 395 | 432 | 961 | 900 | – | – | –
13 | CC(=O)c1cc2ccc(O)cc2oc1=O [compound 14, 14] | 395 | 303 | 786 | 470 | – | – | –

From paper PMC8741243 (Journal of Enzyme Inhibition and Medicinal Chemistry, 2022)
